In patent US5369112A, “Method of treating cataracts caused by active oxygen” (Mitsubishi Gas Chemical Company, Inc., priority 1991, dated 1994):
Read-outs that look alike come from different tables or passages of the source.

Assays:
[1] = Superoxide scavenging activity (hypoxanthine-xanthine oxidase, DMPO spin trapping, ESR); format: biochemical; conditions: Example 2, Table 7; pH 7.3; read-out: O2^- scavenging activity IC50
From the text: Activity of PQQ esters to scavenge superoxide (O2^-) produced in the system of hypoxanthinexanthine oxidase was examined by spin trapping method [using 5,5-dimethyl-l-pyrroline-N-oxide (hereinafter referred to as "DMPO") as a spin trapping agent] where electron spin resonance (hereinafter referred to as "ESR") was used.
Hypoxanthine+2O2 →2O2^- +uric acid (xanthine oxidase)
The following reagents were successively put in a test tube and stirred after addition of the hypoxanthine 7 to initiate the reaction and the reaction mixture was transferred to a quartz cell used for measurement of ESR.
Superoxide scavenging activity of OPQ and esters thereof was examined in the same manner as in Example 1.

[2] = tested on: Hydrocortisone-Induced Cataract of Hen's Eggs; experiment: Effect on hydrocortisone-induced cataract of hen's eggs; format: in vivo, white leghorn (hen's eggs); conditions: 1 μmole at 3, 10 and 20 h after hydrocortisone; lens at 48 h
Method: Fertilized eggs of white leghorn were incubated in an incubator at a temperature of 37° C. and 70% in humidity. The day on which the incubation was started was taken to be one day old. […] eggs of 15 day old were prepared and divided into 7 groups, each of which included 5 eggs (A-G). A small hole was bored through the eggshell above air chamber of the eggs of groups B-G and 0.25 μmole (as 0.2 ml solution) of hydrocortisone sodium succinate was administered into the air chamber through the hole and then, the hole was sealed with a cellophane tape. To The eggs of groups C-G was administered 1 μmole of following compounds after 3, 10 and 20 hours from administration of hydrocortisone sodium succinate. That is, 0.2 ml of a solution of PQQ·2Na in distilled water was administered to the eggs of group C, 0.2 ml of a suspension of PQQ trimethyl ester in 1% Tween 80 solution was administered to the eggs of group D, 0.2 ml of a suspension of triallyl ester in 1% Tween 80 solution was administered to the eggs of group E, 0.2 ml of a solution of OPQ in 10 mM NaCO3 solution was administered to the eggs of group F, and 0.2 ml of a solution of methyl OPQ in 10 mM NaCO3 solution was administered to the eggs of group G.
Crystal lens was taken out after 48 hours from administration of hydrocortisone sodium succinate and degree of cataract was judged by the criteria according to the Nishigori et al method (Nishigori et al, "Investigative Ophthalmology & Visual Science", Vol. 25, page 1051, 1984).
5 The whole nucleus was hazed in white.

[3] = Hydroxy radical scavenging activity (H2O2-(Fe^2+-DTPA), DMPO spin trapping, ESR); format: biochemical; conditions: Example 4, Table 9; pH 7.3; read-out: .OH scavenging activity IC50
From the text: Activity of PQQ esters to scavenge hydroxy radical (·OH) produced in the system of H2 O2 --(Fe^2+ -DTPA) was examined by spin trapping method [using 5,5-dimethyl-1-pyrroline-N-oxide (hereinafter referred to as "DMPO") as a spin trapping agent] where electron spin resonance (hereinafter referred to as "ESR") was used. DTPA means diethylenetriamine-pentaacetic acid.
H2 O2 +Fe^2 -DTPA complex→·OH+OH^-
The following reagents were successively put in a test tube and stirred after addition of H2 O2 6 to initiate the reaction and the reaction mixture was transferred to a quartz cell used for measurement of ESR.
Hydroxy radical scavenging activity of OPQ and esters thereof was examined in the same manner as in Example 3.

mice [4] = experiment: Kidney Toxicity Determined by Blood Examination (1); format: in vivo; conditions: mouse serum
Method: After lapse of one day from the administration, the mice were fasted (with feeding only water) and then after 18 hours, blood was collected and serum was obtained therefrom. Glucose, urea nitrogen and creatinine in the serum were examined by clinical examination reagent (trademark: FUJI DRYCHEMSLIDE manufactured by Fuji Photo Film Co., Ltd.).

mice [5] = conditions: mouse, in vivo, ip
Method: One group consisted of 8 mice. For administration, PQQ·2Na and OPQ and esters thereof were dissolved in physiological saline and PQQ trimethyl ester and PQQ triallyl ester were suspended in 1% Tween 80-containing physiological saline, respectively.
PQQ·2Na, PQQ trimethyl ester, PQQ triallyl ester and OPQ and esters thereof were intraperitoneally administered to mice and they were bred in the same manner as in the above acute toxicity test. Urine of the mice was taken every day and glucose concentration was measured using clinical examination reagent (trademark: […] 2 manufactured by Miles.Sankyo Co.).

[6] = not told
Method: Permeability of various compounds through capsule of crystal bovine lens was examined in accordance with the method mentioned in "Crystal Lens and Biochemical Mechanism thereof" (pages 436-440) edited by Shuzo Iwata (Medical Aoi Publisher). Each compound dissolved in 10 mM HEPES buffer (containing 1% DMSO in the case of PQQ triesters) was put in an apparatus for measurement of membrane permeation constant and left to stand for 16 hours at 35° C. and then amount of the compound which migrated was measured by ultraviolet absorption (243 nm for PQQ·2Na and 255 nm for PQQ esters) to obtain membrane permeation constant.

| Structure (SMILES) | IC50 [1] [µM] | IC50 [3] [µM] | Creatinine (mice [4]; 40 mg/kg) [mg/dL] | Glucose (mice [4]; 40 mg/kg) [mg/dL] | Urea nitrogen (mice [4]; 40 mg/kg) [mg/dL] | Creatinine (mice [4]; 80 mg/kg) [mg/dL] | Glucose (mice [4]; 80 mg/kg) [mg/dL] | Urea nitrogen (mice [4]; 80 mg/kg) [mg/dL] | Creatinine (mice [4]; 160 mg/kg) [mg/dL] | Glucose (mice [4]; 160 mg/kg) [mg/dL] | Urea nitrogen (mice [4]; 160 mg/kg) [mg/dL] | Creatinine (mice [4]; 200 mg/kg) [mg/dL] | Glucose (mice [4]; 200 mg/kg) [mg/dL] | Urea nitrogen (mice [4]; 200 mg/kg) [mg/dL] | glucose in urine (mice [5]; 20 mg/kg) | glucose in urine (mice [5]; 40 mg/kg) | glucose in urine (mice [5]; 80 mg/kg) | glucose in urine (mice [5]; 160 mg/kg) | glucose in urine (mice [5]; 200 mg/kg) | further results |
| --- | --- | --- | --- | --- | --- | --- | --- | --- | --- | --- | --- | --- | --- | --- | --- | --- | --- | --- | --- | --- |
| CSCCc1nc2c3nc(C(=O)O)cc(C(=O)O)c3c3[nH]c(C(=O)O)cc3c2o1 [2-Methylthioethyl OPQ, 2-methylthioethyl OPQ (R= CH2 CH2 SCH3)] | 3.94 | 200 | 0.76 ± 0.05 | 96 ± 26 | 26 ± 4 | 0.68 ± 0.08 | 88 ± 29 | 26 ± 5 | 0.64 ± 0.05 | 97 ± 22 | 26 ± 3 | 0.73 ± 0.06 | 72 ± 16 | 26 ± 2 | - | - | - | - | - |  |
| CCOC(=O)c1cc(C(=O)OCC)c2c(n1)C(=O)C(=O)c1cc(C(=O)OCC)[nH]c1-2 [PQQ triethyl ester] |  |  |  |  |  |  |  |  |  |  |  |  |  |  |  |  |  |  |  | Membrane permeation constant ([6]; bovine, 960 min): 1.22 ± 0.37 10 ^-7 cm^2 · sec^-1; membrane permeation constant relative to that of PQQ.2Na [6]: about twice |
| O=C(O)c1cc(C(=O)O)c2c(n1)c1nc(Cc3ccccc3)oc1c1cc(C(=O)O)[nH]c12 [Benzyl OPQ, benzyl OPQ] | 3.01 | 211 | 0.68 ± 0.05 | 90 ± 24 | 23 ± 3 | 0.68 ± 0.04 | 87 ± 17 | 23 ± 2 | 0.68 ± 0.08 | 87 ± 21 | 26 ± 3 | 0.73 ± 0.05 | 84 ± 18 | 25 ± 3 | - | - | - | - | - |  |
| CCC(C)c1nc2c3nc(C(=O)O)cc(C(=O)O)c3c3[nH]c(C(=O)O)cc3c2o1 (stereo not drawn) [1-Methylpropyl OPQ, 1-methylpropyl OPQ (R=CH(CH3)CH2 CH3)] | 3.53 | 252 | 0.80 ± 0.08 | 87 ± 20 | 26 ± 1 | 0.78 ± 0.04 | 104 ± 19 | 22 ± 3 | 0.78 ± 0.04 | 87 ± 22 | 27 ± 4 | 0.83 ± 0.17 | 66 ± 11 | 27 ± 6 | - | - | - | - | - |  |

The next lines start with results.

| IC50 [1] [µM] | Structure (SMILES) | IC50 [3] [µM] | Creatinine (mice [4]; 40 mg/kg) [mg/dL] | Glucose (mice [4]; 40 mg/kg) [mg/dL] | Urea nitrogen (mice [4]; 40 mg/kg) [mg/dL] | Creatinine (mice [4]; 80 mg/kg) [mg/dL] | Glucose (mice [4]; 80 mg/kg) [mg/dL] | Urea nitrogen (mice [4]; 80 mg/kg) [mg/dL] | Creatinine (mice [4]; 160 mg/kg) [mg/dL] | Glucose (mice [4]; 160 mg/kg) [mg/dL] | Urea nitrogen (mice [4]; 160 mg/kg) [mg/dL] | Creatinine (mice [4]; 200 mg/kg) [mg/dL] | Glucose (mice [4]; 200 mg/kg) [mg/dL] | Urea nitrogen (mice [4]; 200 mg/kg) [mg/dL] | glucose in urine (mice [5]; 20 mg/kg) | glucose in urine (mice [5]; 40 mg/kg) | glucose in urine (mice [5]; 80 mg/kg) | glucose in urine (mice [5]; 160 mg/kg) | glucose in urine (mice [5]; 200 mg/kg) | further results |
| --- | --- | --- | --- | --- | --- | --- | --- | --- | --- | --- | --- | --- | --- | --- | --- | --- | --- | --- | --- | --- |
| 2.39 | C=CCOC(=O)c1cc(C(=O)OCC=C)c2c(n1)c1ncoc1c1cc(C(=O)OCC=C)[nH]c12 [OPQ triallyl ester] |  |  |  |  |  |  |  |  |  |  |  |  |  |  |  |  |  |  |  |
| 1.64 | Cc1nc2c3nc(C(=O)O)cc(C(=O)O)c3c3[nH]c(C(=O)O)cc3c2o1 [Methyl OPQ, methyl OPQ (R=CH3)] | 153 |  |  |  |  |  |  |  |  |  |  |  |  |  |  |  |  |  | Judgement 1 (No haze was seen in crystal lens), eggs [2]: 1/5; Judgement 3 (Clear ring of white haze was seen in crystal lens), eggs [2]: 2/5; Judgement 4 ~ 5 (white haze of pinhole size in nucleus ~ whole nucleus hazed in white), eggs [2]: 2/5 |
| 4.88 | CC(C)Cc1nc2c3nc(C(=O)O)cc(C(=O)O)c3c3[nH]c(C(=O)O)cc3c2o1 [2-Methylpropyl OPQ, 2-methylpropyl OPQ (R=CH2 CH(CH3)2)] | 421 |  |  |  |  |  |  |  |  |  |  |  |  |  |  |  |  |  |  |
| 3.14 | CC(C)c1nc2c3nc(C(=O)O)cc(C(=O)O)c3c3[nH]c(C(=O)O)cc3c2o1 [1-Methylethyl OPQ, 1-methylethyl OPQ (R=CH(CH3)2)] | 200 |  |  |  |  |  |  |  |  |  |  |  |  |  |  |  |  |  |  |
